Experimental data taken from patent publication US20110104161A1, “COMBINATIONS VEGF(R) INHIBITORS AND HEPATOCYTE GROWTH FACTOR (C-MET) INHIBITORS FOR THE TREATMENT OF CANCER” (priority 2008, published 2011).

Legend:
[1] = test system: U-87 MG human glioblastoma tumor cells; test: U-87 MG glioblastoma subcutaneous xenograft tumor growth in nude mice (Example 2); assay type: in vivo
Experimental: U-87 MG human glioblastoma tumor cells (from ATCC) were expanded in culture, harvested and injected subcutaneously into 5-8 week old female nude mice (CD1 NU/NU, Charles River Laboratories) (n=10/group). Treatment began on day 14 (average tumor volume 200 mm^3) with a VEGFR inhibitor, AMG 706, by oral gavage (75 mg/kg/dose/once per day) or an HGF/SF:c-Met inhibitor, AMG 102 by intraperitoneal injection, (3 or 10 μg/dose/twice per week) or a combination of AMG 706 and AMG 102 at the same doses and schedules. Vehicle alone (acid water pH 2.0) and IgG2 isotype control antibody (30 μg/dose/twice per week) served as negative controls for the VEFGFR inhibitor and the HGF/SF:c-Met inhibitor, respectively. Progression of tumor growth was followed by three dimensional caliper measurements and recorded as a function of time. Initial statistical analysis was done by repeated measures analysis of variance (ANOVA), followed by Scheffé post hoc testing for multiple comparisons. […] The combination of AMG 706 and AMG 102 provided no additional benefit compared to AMG 102 monotherapy. Body weights were not negatively impacted by any treatment. Arrow and Rx denote start of dosing.

[2] = test system: 786-0 human renal cell adenocarcinoma cells; test: 786-0-S4 renal cell adenocarcinoma subcutaneous xenograft tumor growth in athymic nude mice (Example 7); assay type: in vivo; conditions: AMG 706 75 mpk/dose PO, Amgen Compound 3 100 mpk/dose PO, or combination, once daily; p≦0.0322 (AMG 706, combination), p=0.0519 (Amgen Compound 3)
Text: 786-0-S4 (786-0 human renal cell adenocarcinoma cells from ATCC that were passaged in vivo) were expanded in culture, harvested and injected subcutaneously into 9 week old female athymic nude mice (Harlan Sprague Dawley) (n=10/group). Administration of the VEGFR inhibitor, AMG 706 (75 mpk/dose, PO), or the c-Met inhibitor, Amgen Compound 3 (100 mpk/dose, PO), or a combination of AMG 706 (75 mpk/dose, PO) and Amgen Compound 3 (100 mpk/dose, PO) began on day 20 post tumor cell implantation. AMG 706 was subsequently administered once daily by oral gavage (75 mpk/dose) and Amgen Compound 3 was administered once daily by oral gavage (100 mpk/dose) for the duration of the experiment. Progression of tumor growth was assessed by three dimensional caliper measurements and recorded as a function of time. Statistical analysis was performed by repeated measures analysis of variance (RMANOVA) followed by Scheffe post hoc testing for multiple comparisons. Vehicles (Acid water (pH 2.2) and 2% HPMC 1% Tween 80) served as negative controls for AMG 706 and Amgen Compound 3, respectively. […] Body weights were not negatively impacted by any treatment. Arrow and Rx denote the start of dosing.

Compound	tumor growth compared with vehicle control group ([1]; AMG 706 75 mg/kg once per day oral gavage)	tumor growth compared to the vehicle [2]	tumor growth compared to the isotype control group ([1]; AMG 102 3 or 10 μg per dose twice per week i.p., p<0.0005)
CC1(C)CNc2cc(NC(=O)c3cccnc3NCc3ccncc3)ccc21 [AMG 706, N-(2,3-dihydro-3,3-dimethyl-1H-indol-6-yl)-2-[(4-pyridinylmethyl)amino]-3-pyridinecarboxamide]	no significant effect on tumor growth	significantly inhibited tumor growth	
AMG 102: anti-HGF/SF antibody, identified in US 2005/0118643 and WO 2005/017107 as antibody 2.12.1			significantly inhibited tumor growth
Cc1c(C(=O)Nc2ccc(Oc3ccnc(NC(=O)N4CCOCC4)c3)c(F)c2)c(=O)n(-c2ccccc2)n1C [Amgen Compound 3, N-(4-(4-(1,5-dimethyl-3-oxo-2-phenyl-2,3-dihydro-1H-pyrazole-4-carboxamido)-2-fluorophenoxy)pyridin-2-yl)morpholine-4-carboxamide]		did not significantly inhibit tumor growth	
